Results from article PMC10669426, “Exploring the Use of Hydroxytyrosol and Some of Its Esters in Food-Grade Nanoemulsions: Establishing Connection between Structure and Efficiency” (Antioxidants, 2023).

Experiments:
[1] = DPPH radical assay, EC50 values at different reaction times; type: biochemical; conditions: T = 25 °C
Procedure: To check if the same insignificant changes hold for HT derivatives, we further tested the point by determining the EC50 values for the different HT derivatives. A UV-Vis Powerwave XS Microplate Reader (96-well microplate, Bio-Tek Instruments, Inc., Winooski, VT, USA) was employed to monitor the loss of DPPH^● (from reaction with each AO) at T = 25.0 ± 0.1 °C. The absorbance of each well was recorded (λ = 515 nm) at 60 s intervals for a 4000 s period, Figure 3.
Each set of experiments was performed in triplicate and, in some instances, in quadruplicate, and the reported EC50 values in Table 1 (determined from data in Figure 3) are the average of these repetitions.

[2] = Shake-flask partition in binary stripped fish oil–water mixtures in the absence of emulsifier; type: physicochemical; conditions: binary 1:9 (v:v) fish oil:water mixture, 25 °C; for partition constant PW^O: average of four runs; for %AOO, percentage present in the oil phase / %AOW, percentage present in the aqueous phase: no emulsifier, pH 3.0 buffer
Procedure: The partition constants, PW^O, of HT and some of its esters were determined, by employing the shake-flask method, in binary stripped fish oil–water mixtures in the absence of emulsifier. Sets of four 1:9 (v:v, oil:water, total volume = 10 mL) binary mixtures, each one containing the same AO, were prepared by stirring the mixture at high speed for 1 min. HT and the C1–C3 derivatives were dissolved in the buffered aqueous solution; meanwhile, those with longer alkyl chains were dissolved in the fish oil phase. The final stoichiometric concentration of AOs was 3.5 mM in all samples. Mixtures were stirred at high speed for 2 min and then equilibrated at T = (25 ± 1) °C for at least 24 h in the dark. The resulting two phases were then divided by centrifugation. Concentrations of the AOs in each phase were estimated by interpolation in previously prepared calibration curves by employing UV-Vis (λ = 285 nm). Further details on the method have been published elsewhere.
The reported PW^O values in Table 2 are average of the four runs. The PW^O values for the more hydrophobic antioxidants are not reported because of the high uncertainty in their values, as the ratio of percentages may be susceptible to small errors in the determination of the values of the AO concentrations in the aqueous phase. In any case, PW^O values higher than 150 indicate that AOs are, essentially, water insoluble.

[3] = Relative oxidative stability of fish oil nanoemulsions, formation of conjugated dienes (AOCS Ti-1a-64); conditions: for antioxidant efficiency order (time needed to reach 0.5% conjugated dienes): 1:9 fish nanoemulsions, T = 25 °C, [AOT] = 0.1 mM
Excerpt: Accelerated tests are commonly used to assess the relative stability of emulsions because of their reproducibility. In the present work, we used the AOCS official standard method Ti-1a-64 to determine the relative antioxidant efficiency of the antioxidants under a set of standardized conditions. For this purpose, we measured the formation of conjugated dienes (CD) with time following the procedure described in detail elsewhere. […] We, however, controlled their stability visually; no phase separation was detected.
We estimated the relative oxidative stability of fish oil nanoemulsions by controlling the extent of lipid oxidation under a set of standardized conditions. For this purpose, we measured the level of oxidation on the basis of the production of conjugated dienes (CD) with time. The method, identical to the AOCS official standard method Ti-1a-64, is rather sensitive and reproducible and suitable for monitoring the early stages of lipid oxidation. Figure 12A is illustrative of a typical oxidation kinetics experiment and where one can observe a constant small increase (lag time) up to a sudden increase in the formation of conjugated dienes (CD). The relative efficiency was assessed by determining the necessary time to reach an increase in CD production of 0.5%. Further details on the experimental procedure and calculations can be found elsewhere.

[4] = Chemical kinetic method (pseudophase model) with the probe 16-ArN2^+ in intact fish oil-in-water nanoemulsions; type: physicochemical; conditions: intact 1:9 fish oil-in-water nanoemulsions, T = 25 °C; for 10^2 kI, interfacial rate constant for the reaction between 16ArN2^+ and AO: values given as 10^2 kI
Procedure: The distribution of HT and its derivatives was determined by using a chemical kinetic method, as have been published elsewhere based on the reaction between a chemical probe (16-ArN2^+, specifically localized at the interface) and the AOs. The changes detected in the observed rate constant for this reaction (kobs) at different surfactant volume fractions (ΦI) were evaluated according to the pseudophase kinetic model developed by Romsted and Bravo-Díaz and explained in detail elsewhere.
The chemical probe 16-ArN2^+ reacts, virtually, with any antioxidant as described elsewhere and the reaction can be monitored by UV-Vis with the aid of a specially developed derivatization protocol. […] The absorbance of the resulting azo dye was monitored at λ = 572 nm once diluted with a 50:50 (v:v) BuOH:EtOH mixture. This dilution step is critical and its purpose is to obtain an optically transparent, homogeneous solution. Details of the complete procedure have been published elsewhere.
Succinctly, after initiating the reaction between 16-ArN2^+ and the antioxidants in the intact emulsion, constant volumes (200 µL) of the nanoemulsion were extracted at given time periods and rapidly added to numbered glass tubes to quench the reaction. Because the quenching reaction is much faster than the reaction between 16-ArN2^+ and the antioxidants, the absorbance of the formed azo dye is proportional to the concentration of unreacted 16-ArN2^+ so that the decrease in absorbance of the azo dye with time can be used to determine kobs. For this purpose, we fitted the experimental (absorbance, time) pairs of data to the integrated first-order rate equation by using a non-linear least squares method provided by a commercial computer program. Figure 4 illustrates the typical variations of the absorbance of the azo dye versus time as determined in the intact fish oil-in-water nanoemulsions. The solid lines are the fitting curves to the integrated and linearized first-order equations.
The relationships between kobs and the partition constants of the AOs between the oil-interfacial, PO^I, and aqueous-interfacial, PW^I, regions are given by Equations (1)–(3), and the partition constants were estimated by fitting the variations of 1/kobs, with ΦI at constant stoichiometric concentration of the antioxidant ([AOT] = 2.5 × 10^−3 M), ΦW (ΦW = 0.9) and ΦO (ΦO = 0.1) as explained in detail elsewhere.
The experimental (kobs, ΦI) pairs of data were fitted to the equations derived from the pseudophase model Equations (1)–(3), which hold for very hydrophilic (Equation (1)) and very hydrophobic (Equation (2)) antioxidants and for those of intermediate hydrophobicity (3).

[5] = Distribution and effective interfacial concentrations of AOs in fish oil nanoemulsions, calculated from partition constants; type: physicochemical; conditions: for order of the percentages of AOs in the interfacial region (%AOI): at any ΦI value
Excerpt: The values of the partition constants PO^I and PW^I in Table 3 were used to estimate the distribution of the AOs in the intact nanoemulsions. Details of the calculations and the equations employed are not given here to keep focus and for the sake of clarity, but can be easily found elsewhere.
In Equation (5), nT represents the total number of moles of the antioxidant, VT the total volume of the emulsion, and ΦI is the interfacial volume fraction. To distinguish between the stoichiometric and effective concentrations, we employed square brackets, [ ], defined as molarity of total emulsion volume, and parenthesis, ( ), defined as molarity of the interfacial region, respectively. The reader must be aware that VI, is the sum of all of the interfacial volumes of all of the aggregates present in the system, and that it matches that of the total volume of the added surfactant. Emulsion droplets and other association colloids as micelles present in the system are broken and reformed at rates much faster than those of the relevant chemical reactions, allowing rapid transfer of materials between them. That is, they are in dynamic equilibrium. (5) (AOI)=nI/VI=nT(%AOI)/VI=nT/VT(%AOI)/VI/VT=[AOT](%AOI)/ΦI

Compound	EC50 ([1]; t = 5 min) [mol AO/mol DPPH^●]	EC50 ([1]; t = 15 min) [mol AO/mol DPPH^●]	EC50 ([1]; t = 30 min) [mol AO/mol DPPH^●]	EC50 ([1]; t = 60 min) [mol AO/mol DPPH^●]	partition constant PW^O [2]	%AOO, percentage present in the oil phase [2] [%]	%AOW, percentage present in the aqueous phase [2] [%]	antioxidant efficiency order (time needed to reach 0.5% conjugated dienes) [3]	partition constant PW^I (aqueous-interfacial) [4]	10^2 kI, interfacial rate constant for the reaction between 16ArN2^+ and AO [4] [M^−1 s^−1]	order of the percentages of AOs in the interfacial region (%AOI) [5]	partition constant PO^I (oil-interfacial) [4]	decrease in efficiency on an increase in ΦI of ∼8 times ([3]; increase in ΦI of ∼8 times) [times]	increase in the oxidative stability of nanoemulsion compared with the control ([3]; ΦI = 0.005) [times]	effective interfacial concentration relative to the stoichiometric concentration ([5]; lowest surfactant fraction ΦI = 0.005, constant o/w ratio)
O=COCCc1ccc(O)c(O)c1 [C1]	0.338 ± 0.005	0.296 ± 0.003	0.288 ± 0.003	0.277 ± 0.003	–	–	–	–	–	–	–	–	–	–	–
OCCc1ccc(O)c(O)c1 [HT, Hydroxytyrosol]	0.323 ± 0.005	0.287 ± 0.004	0.279 ± 0.004	0.258 ± 0.004	0.3 ± 0.1	3.01	96.99	C8 > C10 > C16 > C3 > HT >> control	71 ± 12	14.2 ± 0.1	%HTI < %C3I < %C16I < %C12I < %C10I < %C8I	–	–	–	–
CCCCCCCCCCCC(=O)OCCc1ccc(O)c(O)c1 [C12]	0.345 ± 0.005	0.319 ± 0.004	0.309 ± 0.011	0.294 ± 0.006	–	–	–	–	–	25.3 ± 0.7	%HTI < %C3I < %C16I < %C12I < %C10I < %C8I	16 ± 2	–	–	–
CCC(=O)OCCc1ccc(O)c(O)c1 [C3]	0.345 ± 0.004	0.299 ± 0.002	0.289 ± 0.005	0.280 ± 0.003	7.8 ± 0.4	46.37	53.63	C8 > C10 > C16 > C3 > HT >> control	229 ± 40	27.7 ± 4.7	%HTI < %C3I < %C16I < %C12I < %C10I < %C8I	28 ± 3	–	–	–
CCCCCCCCCCCCCCCC(=O)OCCc1ccc(O)c(O)c1 [C16]	0.331 ± 0.011	0.305 ± 0.006	0.302 ± 0.011	0.298 ± 0.007	–	–	–	C8 > C10 > C16 > C3 > HT >> control	–	25.0 ± 0.8	%HTI < %C3I < %C16I < %C12I < %C10I < %C8I	13 ± 2	–	–	–
CCCCCCCC(=O)OCCc1ccc(O)c(O)c1 [C8]	0.295 ± 0.005	0.265 ± 0.005	0.256 ± 0.007	0.239 ± 0.003	–	–	–	C8 > C10 > C16 > C3 > HT >> control	–	21.0 ± 0.3	%HTI < %C3I < %C16I < %C12I < %C10I < %C8I	22 ± 2	~1.5	~10	about 100 times
